Laboratory results published in patent publication US20040014143A1, “Method and apparatus for detecting and monitoring peptides, and peptides identified therewith” (priority 2002, published 2004).
Like-named read-outs stand apart in the source and are kept apart here.

Key:
GABA production = settings: previous microdialysis studies; cited from earlier work
opioid receptors = assay: Receptor assays probing binding to opioid receptors; settings: data not shown
[1] = test system: neurotransmitter levels (aspartate, GABA, glutamate); settings: infusion of 10 μM peptide into the dialysis probe, n=2

| Compound | effect on GABA production (GABA production) | glutamate levels (GABA production) | binding to opioid receptors (opioid receptors) | GABA level (change in words) [1] | aspartate level (change in words) [1] | glutamate levels (change in words) [1] | GABA level (change in words) ([1]; listed as I11lo peptide) | aspartate level (change in words) ([1]; listed as I11lo peptide) |
| --- | --- | --- | --- | --- | --- | --- | --- | --- |
| CN1CCc2cccc3c2[C@H]1Cc1ccc(O)c(O)c1-3 [apomorphine] | stimulates GABA production | remain the same |  |  |  |  |  |  |
| SPQLEDEAKE (listed as Rattus norvegicus) [peptide I1-10] |  |  | negative | increase | increase | remained the same | increases | increases |
| YGGFL [Leu-enkephalin] | inhibits nicotine-stimulated GABA production |  |  |  |  |  |  |  |
